The test has as its target T1, human mAChR M4 (Homo sapiens, UniProt P08173).
T1 construct: expressed in transfected cells; host or cells: CHO-K1 (ATCC), stably expressing hM4 and Gqi5
T1 sequence (P08173 1-479): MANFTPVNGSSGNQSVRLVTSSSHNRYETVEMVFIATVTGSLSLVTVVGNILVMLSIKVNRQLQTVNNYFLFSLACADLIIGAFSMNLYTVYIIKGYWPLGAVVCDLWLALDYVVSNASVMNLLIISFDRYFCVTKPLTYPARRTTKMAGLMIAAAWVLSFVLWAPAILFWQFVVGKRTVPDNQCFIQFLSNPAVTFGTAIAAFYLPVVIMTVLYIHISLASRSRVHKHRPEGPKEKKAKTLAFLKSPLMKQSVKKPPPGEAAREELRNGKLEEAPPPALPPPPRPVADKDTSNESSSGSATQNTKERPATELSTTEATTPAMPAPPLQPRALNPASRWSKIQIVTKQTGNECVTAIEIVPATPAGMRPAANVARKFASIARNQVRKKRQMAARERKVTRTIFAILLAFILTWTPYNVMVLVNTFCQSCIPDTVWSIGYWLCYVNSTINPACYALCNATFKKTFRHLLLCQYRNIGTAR
Kind of test: mAChR M4 cell-based functional assay: calcium flux (Fluo-4, FDSS), positive allosteric modulator activity on the EC20 acetylcholine response, hM4-Gqi5 CHO-K1 cells. Conditions: for Emax at 30 µM: CHO-K1, human M4, % ACh maximum at 30 μM; for EC50: human M4, PAM activity on EC20 acetylcholine response, calcium flux, read-out: Human M4 EC50. The method, boiled down:
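CHO-K1 cells stably expressing human M4 with chimeric Gqi5, loaded with Fluo-4 AM for 50 min at 37° C. Compounds (11-point, 1:3 dilutions) added first, then an acetylcholine EC20 at 144 s; calcium read on FDSS at 1 Hz. EC50 is the half-maximal increase above the EC20 baseline, four-parameter logistic fit.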
On the technique in general: Calcium flux is commonly read through the fluorescence of an indicator in the cells.

In the case of `Cc1nc(N2CCc3ncc(C(F)(F)F)cc3C2)c2ccc(F)cc2n1` [Compound 127, 7-fluoro-2-methyl-4-[3-(trifluoromethyl)-7,8-dihydro-5H-1,6-naphthyridin-6-yl]quinazoline], the Emax – broadly, the size of the effect at its maximum, as opposed to the concentration needed – at 30 µM turned out to be 63% and the EC50 (usually the midpoint of the concentration-response curve) was 430 nM.

Take `Cc1nc(N2CCc3ncc(-c4ccnn4C)cc3C2)c2cc(Cl)ccc2n1` [Compound 45, 6-chloro-2-methyl-4-[3-(2-methylpyrazol-3-yl)-7,8-dihydro-5H-1,6-naphthyridin-6-yl]quinazoline]: the Emax at 30 µM turned out to be 98% and the EC50 was determined as 60 nM.

With `CN1CCN(c2cnc3c(c2)CN(c2ncnc4cc(F)c(F)cc24)CC3)CC12COC2` [Compound 284, 8-(6-(6,7-difluoroquinazolin-4-yl)-5,6,7,8-tetrahydro-1,6-naphthyridin-3-yl)-5-methyl-2-oxa-5,8-diazaspiro[3.5]nonane], the Emax at 30 µM worked out at 104% and the EC50 was 500 nM.

On to `Cc1ccc2ncnc(N3CCc4ncc(Nc5cccnc5F)cc4C3)c2c1` [Compound 97, N-(2-fluoro-3-pyridyl)-6-(6-methylquinazolin-4-yl)-7,8-dihydro-5H-1,6-naphthyridin-3-amine], for which the Emax at 30 µM came to 95% and the EC50 came out at 80 nM.

In the case of `Cc1nc(N2CCc3ncc(-c4ccc(N(C)C)nc4)cc3C2)c2cc(F)ccc2n1` [Compound 24, 5-[6-(6-fluoro-2-methyl-quinazolin-4-yl)-7,8-dihydro-5H-1,6-naphthyridin-3-yl]-N,N-dimethyl-pyridin-2-amine], the maximal response (Emax) at 30 µM is 92% and the EC50 was 590 nM.

Take `Cc1nc(N2CCc3ncc(-c4ccccc4C)cc3C2)c2cc(Cl)ccc2n1` [Compound 302, 6-chloro-2-methyl-4-(3-(o-tolyl)-7,8-dihydro-1,6-naphthyridin-6(5H)-yl)quinazoline]: the Emax at 30 µM was determined as 94% and the EC50 was 5370 nM.

As for `Cc1nc(N2CCc3ncc(N4CCOc5ncccc54)cc3C2)c2cc(C(F)(F)F)ccc2n1` [Compound 182, 1-[6-[2-methyl-6-(trifluoromethyl)quinazolin-4-yl]-7,8-dihydro-5H-1,6-naphthyridin-3-yl]-2,3-dihydropyrido[2,3-b][1,4]oxazine], the Emax at 30 µM came out at 81% and the EC50 stood at 3300 nM.

As for `C[C@@H]1CN(c2ncnc3ccc(F)cc23)Cc2cc(N3CCOCC3)cnc21` [Compound 259, (R)-4-(6-(6-fluoroquinazolin-4-yl)-8-methyl-5,6,7,8-tetrahydro-1,6-naphthyridin-3-yl)morpholine], the Emax at 30 µM came out at 91% and the concentration giving a half-maximal response (EC50) is 200 nM.

Regarding `Cc1nc(N2CCc3ncc(-c4cc(C(F)(F)F)nn4C)cc3C2)c2cc(Cl)ccc2n1` [Compound 257, 6-chloro-2-methyl-4-(3-(1-methyl-3-(trifluoromethyl)-1H-pyrazol-5-yl)-7,8-dihydro-1,6-naphthyridin-6(5H)-yl)quinazoline], the Emax at 30 µM came to 87% and the EC50 stood at 830 nM.

`FC(F)(F)c1cnc2c(c1)CN(c1nc(C3CC3)nc3ccc(Cl)cc13)CC2` [Compound 186, 6-chloro-2-cyclopropyl-4-[3-(trifluoromethyl)-7,8-dihydro-5H-1,6-naphthyridin-6-yl]quinazoline]: the Emax at 30 µM was found to be 75% and the EC50 is over 10000 nM.

Regarding `Fc1cc2ncnc(N3CCc4ncc(Oc5ccccc5F)cc4C3)c2cc1F` [Compound 158, 6,7-difluoro-4-[3-(2-fluorophenoxy)-7,8-dihydro-5H-1,6-naphthyridin-6-yl]quinazoline], the Emax at 30 µM amounted to 80% and the EC50 stood at 270 nM.

On to `Cc1nc(N2CCc3ncc(-c4cnn(C)c4)cc3C2)c2cc(F)ccc2n1` [Compound 21, 6-fluoro-2-methyl-4-[3-(1-methylpyrazol-4-yl)-7,8-dihydro-5H-1,6-naphthyridin-6-yl]quinazoline], for which the Emax at 30 µM came out at 90% and the EC50 was found to be 40 nM.

Turning to `Cc1nc(N2CCc3ncc(C(F)(F)F)cc3C2)c2ccc(Br)cc2n1` [Compound 128, 7-bromo-2-methyl-4-[3-(trifluoromethyl)-7,8-dihydro-5H-1,6-naphthyridin-6-yl]quinazoline], the Emax at 30 µM came out at 32% and the EC50 was 1740 nM.

Turning to `Cn1cc(-c2cnc3c(c2)CN(c2nc(Cl)nc4cc(Cl)c(F)cc24)CC3)cn1` [Compound 62, 2,7-dichloro-6-fluoro-4-[3-(1-methylpyrazol-4-yl)-7,8-dihydro-5H-1,6-naphthyridin-6-yl]quinazoline], the Emax at 30 µM was 34% and the EC50 amounted to 410 nM.

Take `Fc1ccc2ncnc(N3CCc4ncc(Nc5ccncc5F)cc4C3)c2c1` [Compound 315, N-(3-fluoropyridin-4-yl)-6-(6-fluoroquinazolin-4-yl)-5,6,7,8-tetrahydro-1,6-naphthyridin-3-amine]: the Emax at 30 µM came out at 81% and the EC50 turned out to be 10 nM.

Regarding `Cc1nc(N2CCc3ncc(C(F)(F)F)cc3C2)c2ccccc2n1` [Compound 138, 2-methyl-4-[3-(trifluoromethyl)-7,8-dihydro-5H-1,6-naphthyridin-6-yl]quinazoline], the Emax at 30 µM was 82% and the EC50 came out at 480 nM.

In the case of `CC1CN(c2ncnc3ccc(F)cc23)Cc2cc(N(c3cccnc3)c3cccnc3)cnc21` (stereo not drawn) [Compound 235, 6-(6-fluoroquinazolin-4-yl)-8-methyl-N,N-di(pyridin-3-yl)-5,6,7,8-tetrahydro-1,6-naphthyridin-3-amine], the Emax at 30 µM was determined as 77% and the EC50 came to 630 nM.

Consider `Cc1ccc(F)cc1-c1cnc2c(c1)CN(c1ncnc3ccc(Cl)cc13)CC2` [Compound 301, 6-chloro-4-(3-(5-fluoro-2-methylphenyl)-7,8-dihydro-1,6-naphthyridin-6(5H)-yl)quinazoline], for which the maximal response (Emax) at 30 µM turned out to be 94% and the EC50 came to 3060 nM.

Take `Cn1nccc1Nc1cnc2c(c1)CN(c1nc(NCC(C)(C)O)nc3ccc(F)cc13)CC2` [Compound 212, 1-[[6-fluoro-4-[3-[(2-methylpyrazol-3-yl)amino]-7,8-dihydro-5H-1,6-naphthyridin-6-yl]quinazolin-2-yl]amino]-2-methyl-propan-2-ol]: the Emax at 30 µM is 90% and the EC50 came out at 190 nM.

`COc1ccc2ncnc(N3CCc4ncc(Nc5cccnc5F)cc4C3)c2c1` [Compound 81, N-(2-fluoro-3-pyridyl)-6-(6-methoxyquinazolin-4-yl)-7,8-dihydro-5H-1,6-naphthyridin-3-amine]: the maximal response (Emax) at 30 µM is 95% and the EC50 is 460 nM.

Consider `Fc1cc2ncnc(N3CCc4ncc(-c5ccnn5C5COC5)cc4C3)c2cc1F` [Compound 269, 6,7-difluoro-4-(3-(1-(oxetan-3-yl)-1H-pyrazol-5-yl)-7,8-dihydro-1,6-naphthyridin-6(5H)-yl)quinazoline], for which the Emax at 30 µM amounted to 79% and the EC50 worked out at 1600 nM.

Turning to `Cc1nc(N2CCc3ncc(C(F)(F)F)cc3C2)c2cccc(F)c2n1` [Compound 126, 8-fluoro-2-methyl-4-[3-(trifluoromethyl)-7,8-dihydro-5H-1,6-naphthyridin-6-yl]quinazoline], the Emax at 30 µM is 66% and the EC50 was determined as 310 nM.

On to `c1cnc2nc(NC3CC3)nc(N3CCc4ncc(N5CCCn6nccc65)cc4C3)c2c1` [Compound 244, N-cyclopropyl-4-(3-(6,7-dihydropyrazolo[1,5-a]pyrimidin-4(5H)-yl)-7,8-dihydro-1,6-naphthyridin-6(5H)-yl)pyrido[2,3-d]pyrimidin-2-amine], for which the Emax at 30 µM amounted to 70% and the half-maximal effective concentration (EC50) was 240 nM.

Turning to `Cc1ccc(F)c(Oc2cnc3c(c2)CN(c2ncnc4ccc(F)cc24)CC3)c1` [Compound 148, 6-fluoro-4-[3-(2-fluoro-5-methyl-phenoxy)-7,8-dihydro-5H-1,6-naphthyridin-6-yl]quinazoline], the Emax at 30 µM amounted to 88% and the EC50 turned out to be 760 nM.

On to `Cc1nc(N2CCc3ncc(-c4ccc(C(F)(F)F)nc4)cc3C2)c2cc(F)ccc2n1` [Compound 3, 6-fluoro-2-methyl-4-[3-[6-(trifluoromethyl)-3-pyridyl]-7,8-dihydro-5H-1,6-naphthyridin-6-yl]quinazoline], for which the Emax at 30 µM turned out to be 75% and the concentration giving a half-maximal response (EC50) amounted to 460 nM.

For the compound `Cc1nc(N2CCc3ncc(Nc4cccnc4F)cc3C2)c2cc(F)ccc2n1` [Compound 70, 6-(6-fluoro-2-methyl-quinazolin-4-yl)-N-(2-fluoro-3-pyridyl)-7,8-dihydro-5H-1,6-naphthyridin-3-amine], the maximal effect (Emax) at 30 µM turned out to be 85% and the EC50 was found to be 130 nM.

With `COc1ccc2nc(C)nc(N3CCc4ncc(-c5ccccc5C)cc4C3)c2c1` [Compound 314, 6-methoxy-2-methyl-4-(3-(o-tolyl)-7,8-dihydro-1,6-naphthyridin-6(5H)-yl)quinazoline], the Emax at 30 µM turned out to be 77% and the EC50 turned out to be 4670 nM.

The record behind these values is US20250026752A1, “POSITIVE ALLOSTERIC MODULATORS OF THE MUSCARINIC ACETYLCHOLINE RECEPTOR M4” (Vanderbilt University, priority 2021, published 2025).
